In ChEMBL document CHEMBL1201862, “PubChem BioAssay data set” (2004):
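Exposure lasted 48 hours, with cells grown in 96-well plates and compounds tested at five concentrations. GI50 marks 50% less growth.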 The source made the active and inactive calls. Cut-off read from the data, not from the text of the source: active = GI50 up to about 1.1 µM and inactive = higher.

How the values were obtained:
Assay in all cases: NCI anticancer screen, dose series, 48 h
HCT-116 = test system: HCT-116
T47D = test system: T47D
TK-10 = test system: TK-10
HCT-15 = test system: HCT-15
HT-29 = test system: HT-29
MDA-MB-231 = test system: MDA-MB-231
BT-549 = test system: BT-549
OVCAR-4 = test system: OVCAR-4
NCI-H522 = test system: NCI-H522
HOP-62 = test system: HOP-62
MCF7 = test system: MCF7
RPMI-8226 = test system: RPMI-8226
UACC-62 = test system: UACC-62
UACC-257 = test system: UACC-257
K562 = test system: K562
SW-620 = test system: SW-620
SR = test system: SR
SF-295 = test system: SF-295
UO-31 = test system: UO-31
DU-145 = test system: DU-145
KM12 = test system: KM12
NCI/ADR-RES = test system: NCI/ADR-RES
786-0 = test system: 786-0
HCC 2998 = test system: HCC 2998
SK-MEL-28 = test system: SK-MEL-28
OVCAR-5 = test system: OVCAR-5
MDA-MB-435 = test system: MDA-MB-435
M14 = test system: M14
A498 = test system: A498
MDA-N = test system: MDA-N
Hs-578T = test system: Hs-578T
U-251 = test system: U-251
RXF 393 = test system: RXF 393
SNB-19 = test system: SNB-19
NCI-H460 = test system: NCI-H460
EKVX = test system: EKVX
Malme-3M = test system: Malme-3M
SK-OV-3 = test system: SK-OV-3
ACHN = test system: ACHN
SK-MEL-2 = test system: SK-MEL-2
NCI-H23 = test system: NCI-H23
PC-3 = test system: PC-3
LOX IMVI = test system: LOX IMVI
IGROV-1 = test system: IGROV-1
OVCAR-3 = test system: OVCAR-3
SN12C = test system: SN12C
SNB-75 = test system: SNB-75
CAKI-1 = test system: CAKI-1
A549 = test system: A549
SF-539 = test system: SF-539
SF-268 = test system: SF-268
HOP-92 = test system: HOP-92
SK-MEL-5 = test system: SK-MEL-5
CCRF-CEM = test system: CCRF-CEM
COLO 205 = test system: COLO 205
OVCAR-8 = test system: OVCAR-8
MOLT-4 = test system: MOLT-4
HL-60 = test system: HL-60
NCI-H226 = test system: NCI-H226

O=C(O)C1C2CCC(O2)C1C(=O)Nc1cccc2cccnc12 (stereo not drawn) was tested, and the GI50 (HCT-116) was > 100 µM (inactive), the GI50 (T47D) was > 100 µM (inactive) and the GI50 (TK-10) was > 100 µM (inactive). The GI50 (HCT-15) was greater than 100 µM, the GI50 (HT-29) was > 100 µM (inactive) and the GI50 (MDA-MB-231) was > 100 µM (inactive). The GI50 (BT-549) was > 100 µM (inactive), the GI50 (OVCAR-4) was > 100 µM (inactive) and the GI50 (NCI-H522) was 88.5 µM (inactive). For the same molecule, the GI50 (HOP-62) was > 100 µM (inactive), the GI50 (MCF7) was > 100 µM (inactive) and the GI50 (RPMI-8226) was > 100 µM (inactive). The GI50 (UACC-62) was > 100 µM (inactive), the GI50 (UACC-257) was > 100 µM (inactive) and the GI50 (K562) was > 100 µM (inactive). The GI50 (SW-620) was > 100 µM (inactive), the GI50 (SR) was > 100 µM (inactive) and the GI50 (SF-295) was > 100 µM (inactive). For the same molecule, the GI50 (UO-31) was > 100 µM (inactive), the GI50 (DU-145) was > 100 µM (inactive) and the GI50 (KM12) was > 100 µM (inactive). For the same molecule, the GI50 (NCI/ADR-RES) was > 100 µM (inactive), the GI50 (786-0) was > 100 µM (inactive) and the GI50 (HCC 2998) was 31.1 µM (inactive). For the same molecule, the GI50 (SK-MEL-28) was > 100 µM (inactive), the GI50 (OVCAR-5) was > 100 µM (inactive) and the GI50 (MDA-MB-435) was > 100 µM (inactive). For the same molecule, the GI50 (M14) was > 100 µM (inactive), the GI50 (A498) was > 100 µM (inactive) and the GI50 (MDA-N) was > 100 µM (inactive). The GI50 (Hs-578T) was 93.5 µM (inactive), the GI50 (U-251) was > 100 µM (inactive) and the GI50 (RXF 393) was > 100 µM (inactive). The GI50 (SNB-19) was > 100 µM (inactive), the GI50 (NCI-H460) was 55.5 µM (inactive) and the GI50 (EKVX) was > 100 µM (inactive). The GI50 (Malme-3M) was > 100 µM (inactive), the GI50 (SK-OV-3) was > 100 µM (inactive) and the GI50 (ACHN) was > 100 µM (inactive). The GI50 (SK-MEL-2) was > 100 µM (inactive), the GI50 (NCI-H23) was > 100 µM (inactive) and the GI50 (PC-3) was > 100 µM (inactive). For the same molecule, the GI50 (LOX IMVI) was > 100 µM (inactive), the GI50 (IGROV-1) was > 100 µM (inactive) and the GI50 (OVCAR-3) was > 100 µM (inactive). For the same molecule, the GI50 (SN12C) was > 100 µM (inactive), the GI50 (SNB-75) was > 100 µM (inactive) and the GI50 (CAKI-1) was > 100 µM (inactive). For the same molecule, the GI50 (A549) was > 100 µM (inactive).

With CCCCOC(=O)Nc1ccc(S(=O)(=O)Nc2c(Cl)cccc2Cl)cc1 the GI50 (HCT-116) was 26.5 µM (inactive), the GI50 (T47D) was 25.7 µM (inactive) and the GI50 (TK-10) was 36.6 µM (inactive). The GI50 (HCT-15) was 26.7 µM, the GI50 (HT-29) was 14.5 µM (inactive) and the GI50 (MDA-MB-231) was 25.1 µM (inactive). For the same molecule, the GI50 (BT-549) was 17.7 µM (inactive), the GI50 (SF-539) was 29.4 µM (inactive) and the GI50 (SF-268) was 36.6 µM (inactive). For the same molecule, the GI50 (OVCAR-4) was 12.1 µM (inactive), the GI50 (NCI-H522) was 42.1 µM (inactive) and the GI50 (HOP-62) was 49 µM (inactive). The GI50 (HOP-92) was 24.2 µM (inactive), the GI50 (MCF7) was 30.8 µM (inactive) and the GI50 (RPMI-8226) was 17.1 µM (inactive). The GI50 (UACC-62) was 21.2 µM (inactive), the GI50 (UACC-257) was 35.6 µM (inactive) and the GI50 (K562) was 19.6 µM (inactive). The GI50 (SW-620) was 24.4 µM (inactive), the GI50 (SR) was 21.4 µM (inactive) and the GI50 (SF-295) was 32.3 µM (inactive). For the same molecule, the GI50 (UO-31) was 25.6 µM (inactive), the GI50 (DU-145) was 38.9 µM (inactive) and the GI50 (KM12) was 36.1 µM (inactive). For the same molecule, the GI50 (NCI/ADR-RES) was 24.3 µM (inactive), the GI50 (786-0) was 31.3 µM (inactive) and the GI50 (HCC 2998) was 23.9 µM (inactive). The GI50 (SK-MEL-5) was 14.1 µM (inactive), the GI50 (CCRF-CEM) was 33.6 µM (inactive) and the GI50 (SK-MEL-28) was 24.4 µM (inactive). For the same molecule, the GI50 (OVCAR-5) was 42 µM (inactive), the GI50 (MDA-MB-435) was 26.3 µM (inactive) and the GI50 (M14) was 43 µM (inactive). For the same molecule, the GI50 (A498) was 11.1 µM (inactive), the GI50 (MDA-N) was 27.2 µM (inactive) and the GI50 (Hs-578T) was 43 µM (inactive). For the same molecule, the GI50 (COLO 205) was 16.1 µM (inactive), the GI50 (U-251) was 36.1 µM (inactive) and the GI50 (OVCAR-8) was 22.3 µM (inactive). For the same molecule, the GI50 (RXF 393) was 36.9 µM (inactive), the GI50 (SNB-19) was 39.7 µM (inactive) and the GI50 (NCI-H460) was 31.1 µM (inactive). For the same molecule, the GI50 (EKVX) was 26.6 µM (inactive), the GI50 (MOLT-4) was 24.3 µM (inactive) and the GI50 (Malme-3M) was 26.9 µM (inactive). For the same molecule, the GI50 (SK-OV-3) was 25.2 µM (inactive), the GI50 (ACHN) was 30.2 µM (inactive) and the GI50 (SK-MEL-2) was 26.9 µM (inactive). For the same molecule, the GI50 (NCI-H23) was 40.9 µM (inactive), the GI50 (HL-60) was 22.3 µM (inactive) and the GI50 (PC-3) was 43.3 µM (inactive). For the same molecule, the GI50 (LOX IMVI) was 30.1 µM (inactive), the GI50 (IGROV-1) was 30.4 µM (inactive) and the GI50 (OVCAR-3) was 26.3 µM (inactive). The GI50 (SN12C) was 34.1 µM (inactive), the GI50 (CAKI-1) was 25.6 µM (inactive) and the GI50 (A549) was 37.4 µM (inactive).

For CCOC(=O)c1cc(C2CCN(c3ccccc3)C2=O)c(C(=O)/C=C(/C)N)[nH]1 (stereo not drawn), the GI50 (HCT-116) was 12.7 µM (inactive), the GI50 (T47D) was 32.8 µM (inactive) and the GI50 (TK-10) was 28.2 µM (inactive). For the same molecule, the GI50 (HCT-15) was greater than 100 µM, the GI50 (HT-29) was 12.9 µM (inactive) and the GI50 (MDA-MB-231) was 56.4 µM (inactive). For the same molecule, the GI50 (BT-549) was > 100 µM (inactive), the GI50 (SF-268) was 30.2 µM (inactive) and the GI50 (OVCAR-4) was 42.5 µM (inactive). For the same molecule, the GI50 (NCI-H522) was 18.5 µM (inactive), the GI50 (HOP-62) was 18.1 µM (inactive) and the GI50 (MCF7) was 54.6 µM (inactive). For the same molecule, the GI50 (RPMI-8226) was > 100 µM (inactive), the GI50 (UACC-62) was 16.2 µM (inactive) and the GI50 (UACC-257) was 94.8 µM (inactive). The GI50 (K562) was 68.2 µM (inactive), the GI50 (SW-620) was 45.8 µM (inactive) and the GI50 (SR) was > 100 µM (inactive). For the same molecule, the GI50 (SF-295) was 15.9 µM (inactive), the GI50 (UO-31) was 49.2 µM (inactive) and the GI50 (DU-145) was 54.5 µM (inactive). For the same molecule, the GI50 (KM12) was > 100 µM (inactive), the GI50 (NCI/ADR-RES) was 44 µM (inactive) and the GI50 (786-0) was 10.2 µM (inactive). For the same molecule, the GI50 (HCC 2998) was > 100 µM (inactive), the GI50 (SK-MEL-5) was 40.8 µM (inactive) and the GI50 (CCRF-CEM) was > 100 µM (inactive). The GI50 (SK-MEL-28) was 29.1 µM (inactive), the GI50 (OVCAR-5) was 46.3 µM (inactive) and the GI50 (MDA-MB-435) was > 100 µM (inactive). For the same molecule, the GI50 (M14) was 65 µM (inactive), the GI50 (A498) was 57 µM (inactive) and the GI50 (MDA-N) was 71.4 µM (inactive). The GI50 (Hs-578T) was 14.9 µM (inactive), the GI50 (COLO 205) was > 100 µM (inactive) and the GI50 (U-251) was 15 µM (inactive). The GI50 (OVCAR-8) was 28.3 µM (inactive), the GI50 (RXF 393) was 37.9 µM (inactive) and the GI50 (SNB-19) was 21.3 µM (inactive). The GI50 (NCI-H460) was 33.2 µM (inactive), the GI50 (NCI-H226) was 20.5 µM (inactive) and the GI50 (EKVX) was 23.6 µM (inactive). For the same molecule, the GI50 (MOLT-4) was 39.6 µM (inactive), the GI50 (Malme-3M) was 17.6 µM (inactive) and the GI50 (SK-OV-3) was 16.6 µM (inactive). The GI50 (ACHN) was 40.6 µM (inactive), the GI50 (SK-MEL-2) was > 100 µM (inactive) and the GI50 (NCI-H23) was 92.3 µM (inactive). For the same molecule, the GI50 (HL-60) was > 100 µM (inactive), the GI50 (PC-3) was 39.5 µM (inactive) and the GI50 (LOX IMVI) was 28 µM (inactive). For the same molecule, the GI50 (IGROV-1) was 33.7 µM (inactive), the GI50 (OVCAR-3) was 39.6 µM (inactive) and the GI50 (SN12C) was 21.8 µM (inactive). For the same molecule, the GI50 (SNB-75) was 8.05 µM (inactive), the GI50 (CAKI-1) was 21.3 µM (inactive) and the GI50 (A549) was 25.6 µM (inactive).
